Assay [1] relates to mouse embryonic fibroblasts lipofected with poly I:C. Nature of the assay: In vitro inflammation/infection model: poly I:C induced mouse embryonic fibroblasts. Type of assay: cell-based. The following applies: 25 μM, 6h, IFN-beta ELISA in culture supernatants. The method, then:
Mouse Embryonic Fibroblasts (MEFs) were lipofected with poly I:C and treated with […] compounds of the invention (25 μM) for 6h. After 6h of culture, elF2alpha-phosphorylation (elF2a-P) and PPP1R15A (GADD34) expression was monitored by western blotting, while type-1 Interferon(IFN)-beta production was quantified in culture supernatants by ELISA. Control (nt) and poly I:C/DMSO are respectively negative and positive controls. Poly I:C (polyinosinic:polycytidylic acid or polyinosinic-polycytidylic acid sodium salt) is an immunostimulant used to simulate viral infections. Poly I:C which is structurally similar to double-stranded RNA, is known to interact with toll-like receptor 3 which is expressed in the intracellular compartments of B-cells and dendritic cells. Guanabenz (25 μM) was used as reference inhibitory compound.
MEFs were cultured in DMEM, 10% FCS (HyClone, Perbio), 100 units/ml penicillin, 100 μg/ml streptomycin, 2 mM glutamine, 1× MEM non-essential amino acids and 50 μM 2-mercaptoethanol. MEFS were treated for the indicated time with 10 μg/ml poly I:C (InvivoGen) in combination with lipofectamine 2000 (Invitrogen).
Cells were lysed in 1% Triton X-100, 50 mM Hepes, 10 mM NaCl, 2.5 mM MgCl2, 2 mM EDTA, 10% glycerol, supplemented with Complete Mini Protease Inhibitor Cocktail Tablets (Roche). Protein quantification was performed using the BCA Protein Assay (Pierce). 25-50 μg of Triton X-100-soluble material was loaded on 2%-12% gradient or 8% SDS-PAGE before immunoblotting and chemi-luminescence detection (SuperSignal West Pico Chemi-luminescent Substrate, Pierce). Rabbit polyclonal antibodies recognizing GADD34 (C-19) were from Santa Cruz Biotechnology and anti-elF2alpha[pS^52] were from Invitrogen.
IFN-beta quantification in culture supernatant was performed using the Mouse Interferon Beta ELISA kit (PBL Interferon Source) according to manufacturer instructions.
Normal response of MEFs to poly I:C is characterized by PPP1R15A expression, increase in elF2alpha-P (variable in time and related to the levels PPP1R15A expression) mediated by PKR activation and type-I IFN production (range 500 to 700 pg/ml). Knock out PPP1R15A MEFs are unable to produce this cytokine in response to poly I:C.
The potency of compounds of the invention to inhibit PPP1R15A was evaluated by measuring the increase of elF2alpha phosphorylation, the decrease of PPP1R15A expression due to its own pharmacological inhibition resulting in general protein synthesis inhibition and type-I IFN production.
For orientation: ELISA stands for enzyme-linked immunosorbent assay.

In assay [2] the test system is rotenone injured primary mesencephalic rat neurons. In words: In vitro Parkinson's disease model: rotenone injured primary mesencephalic rat neurons. Type of assay: cell-based. The conditions noted are these: rotenone 10 nM, 24 hours; total number of TH positive neurons. The method, then: Rat dopaminergic neurons were cultured as described by Schinelli et al., (1988 J. Neurochem 50 pp1900-07) and Visanji et al., (2008 FASEB J. 22(7) pp2488-97). Briefly, the midbrains obtained from 15-day old rat embryos (Janvier Labs, France) were dissected under a microscope. The embryonic midbrains were removed and placed in ice-cold medium of Leibovitz (L15, Pan Biotech, Batch: 9310614) containing 2% of Penicillin-Streptomycin (PS, Pan Biotech, Batch: 1451013) and 1% of bovine serum albumin (BSA, Pan Biotech, Batch: h140603). The ventral portion of the mesencephalic flexure, a region of the developing brain rich in dopaminergic neurons, was used for the cell preparations.
The midbrains were dissociated by trypsinisation for 20 min at 37° C. (Trypsin 0.05% EDTA 0.02%, PanBiotech, Batch: 5890314). The reaction was stopped by the addition of Dulbecco's modified Eagle's medium (DMEM, PanBiotech, Batch: 1300714) containing DNAase I grade II (0.1 mg/ml, PanBiotech, Batch: H140508) and 10% of foetal calf serum (FCS, Gibco, Batch: 41Q7218K). Cells were then mechanically dissociated by 3 passages through a 10 ml pipette. Cells were then centrifuged at 180×g for 10 min at +4° C. on a layer of BSA (3.5%) in L15 medium. The supernatant was discarded and the cell pellets were re-suspended in a defined culture medium consisting of Neurobasal (Invitrogen, Batch: 1636133) supplemented with B27 (2%, Invitrogen, Batch: 1660670), L-glutamine (2 mM, PanBiotech, Batch: 8150713) and 2% of PS solution and 10 ng/ml of Brain-derived neurotrophic factor (BDNF, PanBiotech, Batch: H140108) and 1 ng/ml of Glial-Derived Neurotrophic Factor (GDNF, Pan Biotech, Batch: H130917). Viable cells were counted in a Neubauer cytometer using the trypan blue exclusion test. The cells were seeded at a density of 40 000 cells/well in 96 well-plates pre-coated with poly-L-lysine (Corning Biocoat, Batch: 6614022) and maintained in a humidified incubator at 37° C. in 5% CO2/95% air atmosphere. Half of the medium was changed every 2 days with fresh medium.
On day 6 of culture, the medium was removed and fresh medium was added, without or with rotenone (Sigma, Batch: 021M2227V) at 10 nM diluted in control medium, 3 wells per condition were assessed. […]
The immunolabeled cultures were automatically examined with ImageXpress (Molecular device USA). For each condition, 20 automatically fields per well (representing ˜80% of the total surface of the well) from 3 wells were analyzed. The total number of TH neurons was automatically analyzed using Custom module editor (Molecular Devices, USA). […] All values were expressed as mean +/−SEM (s.e. mean) of the 1 culture (n=3 wells per condition per culture).

Molecules are shown by their SMILES.

In the case of `CCO/N=C(\N)N/N=C/c1ccccc1Cl` [Compound 10, 2-(2-chlorobenzylidene)-N′-ethoxyhydrazinecarboximidamide], the “prevention of type-I IFN production (FIG. 9)” value (“prevention” for short) in assay [1] is on record as “prevent type-I IFN production”. On to `CCONC(=N)N/N=C/c1c(Cl)cccc1Cl` [Compound 11, 2-(2,6-dichlorobenzylidene)-N-ethoxyhydrazinecarboximidamide], for which, in assay [2], the “protection of rotenone injured primary mesencephalic rat neurons (FIG. 3)” value (“protection” below) is “dose dependent protection”. The “prevention” value in assay [1] is given as “prevent type-I IFN production”. With `CCCONC(=N)N/N=C/c1ccccc1Cl` [Compound 12, 2-(2-chlorobenzylidene)-N-propoxyhydrazinecarboximidamide], in assay [2], the “protection” value is on record as “dose dependent protection”. The “prevention” value in assay [1] is reported as “prevent type-I IFN production”. For the compound `CCONC(=N)N/N=C/c1c(F)cccc1Cl` [Compound 17, 2-(2-chloro-6-fluorobenzylidene)-N-ethoxyhydrazinecarboximidamide], the “protection” value in assay [2] was “dose dependent protection”. The “prevention” value in assay [1] was “prevent type-I IFN production”.

(Values after US11084783B2, “O-alkyl-benzylideneguanidine derivatives and therapeutic use for the treatment of disorders associated with an accumulation of misfolded proteins” (INFLECTIS BIOSCIENCE, priority 2014, dated 2021).)
